Measurements published in PubChem BioAssay AID1963829 (Molecular Pharmacology Branch, DTP, NCI, 2024).

Tested on: 935938-334-R-J1-PDC complex spheroid viability
Test: Anticancer human tumor 935938-334-R-J1-PDC patient-derived small intestine adenocarcinoma cell line growth inhibition [POLQ]
Conditions: for IC50: curve of first compound; for viability, T/C: stronger effect = lower value
Procedure, shortened: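 Three-cell-type spheroids modelling solid tumor plus stroma served as the readout system; POL inhibitors were tested individually and in combination, concentration ranges set by clinical Cmax where known.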

[1] = second compound 0.0316 µM, first compound 0.0316 µM
[2] = second compound 0.0316 µM, first compound 0.1 µM
[3] = second compound 0.0316 µM, first compound 0.316 µM
[4] = second compound 0.0316 µM, first compound 1 µM
[5] = second compound 0.0316 µM, first compound 3.16 µM
[6] = second compound 0.0316 µM, first compound 10 µM
[7] = second compound 0.1 µM, first compound 0.0316 µM
[8] = second compound 0.1 µM, first compound 0.1 µM
[9] = second compound 0.1 µM, first compound 0.316 µM
[10] = second compound 0.1 µM, first compound 1 µM
[11] = second compound 0.1 µM, first compound 3.16 µM
[12] = second compound 0.1 µM, first compound 10 µM
[13] = second compound 0.316 µM, first compound 0.0316 µM
[14] = second compound 0.316 µM, first compound 0.1 µM
[15] = second compound 0.316 µM, first compound 0.316 µM
[16] = second compound 0.316 µM, first compound 1 µM
[17] = second compound 0.316 µM, first compound 3.16 µM
[18] = second compound 0.316 µM, first compound 10 µM
[19] = second compound 1 µM, first compound 0.0316 µM
[20] = second compound 1 µM, first compound 0.1 µM
[21] = second compound 1 µM, first compound 0.316 µM
[22] = second compound 1 µM, first compound 1 µM
[23] = second compound 1 µM, first compound 3.16 µM
[24] = second compound 1 µM, first compound 10 µM
[25] = second compound 3.16 µM, first compound 0.0316 µM
[26] = second compound 3.16 µM, first compound 0.1 µM
[27] = second compound 3.16 µM, first compound 0.316 µM
[28] = second compound 3.16 µM, first compound 1 µM
[29] = second compound 3.16 µM, first compound 3.16 µM
[30] = second compound 3.16 µM, first compound 10 µM
[31] = second compound 10 µM, first compound 0.0316 µM
[32] = second compound 10 µM, first compound 0.1 µM
[33] = second compound 10 µM, first compound 0.316 µM
[34] = second compound 10 µM, first compound 1 µM
[35] = second compound 10 µM, first compound 3.16 µM
[36] = second compound 10 µM, first compound 10 µM
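Note: spheroids exposed to drugs for seven days before viability read.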
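Throughout, for viability, T/C: 100% = DMSO vehicle control wells.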

Question: Which results are given for `CCc1cc2c(N3CCc4c(cc(Cn5ccnc5)cc4-c4cn(C)nc4C(F)(F)F)C3=O)ccnc2c(OC)n1` + COC1C(OC(N)=O)C(O)C(Oc2ccc3c(O)c(NC(=O)c4ccc(O)c(CC=C(C)C)c4)c(=O)oc3c2C)OC1(C)C?
Answer: IC50 (second compound 0.0316 µM): > 10 µM; IC50 (second compound 0.1 µM): > 10 µM; IC50 (second compound 0.316 µM): > 10 µM; IC50 (second compound 1 µM): > 10 µM; IC50 (second compound 3.16 µM): > 10 µM; IC50 (second compound 10 µM): > 10 µM; viability, T/C [1]: 73.3%; viability, T/C [2]: 86.7%; viability, T/C [3]: 72.2%; viability, T/C [4]: 94.4%; viability, T/C [5]: 82.7%; viability, T/C [6]: 65.9%; viability, T/C [7]: 85.7%; viability, T/C [8]: 77.2%; viability, T/C [9]: 64.6%; viability, T/C [10]: 83.8%; viability, T/C [11]: 86.5%; viability, T/C [12]: 64.5%; viability, T/C [13]: 97.2%; viability, T/C [14]: 62.6%; viability, T/C [15]: 85%; viability, T/C [16]: 73.2%; viability, T/C [17]: 90.5%; viability, T/C [18]: 70.3%; viability, T/C [19]: 64.7%; viability, T/C [20]: 81.9%; viability, T/C [21]: 62.5%; viability, T/C [22]: 63.9%; viability, T/C [23]: 87.5%; viability, T/C [24]: 62.1%; viability, T/C [25]: 74.5%; viability, T/C [26]: 85.5%; viability, T/C [27]: 88.5%; viability, T/C [28]: 59.5%; viability, T/C [29]: 73.5%; viability, T/C [30]: 72%; viability, T/C [31]: 69.7%; viability, T/C [32]: 67.2%; viability, T/C [33]: 66.1%; viability, T/C [34]: 73.6%; viability, T/C [35]: 81.2%; viability, T/C [36]: 72.2%

Question: How did the IC50 (second compound 0.0316 µM) turn out when `COc1cccc(OCCCN)c1-c1cc(Nc2cnc(C#N)cn2)n[nH]1` + Nc1ccc(C#CCN(C(=O)Cc2ncc(C(F)(F)F)cc2C(F)(F)F)c2ccc(F)cc2)nn1 was run?
Answer: 0.0366 µM

Question: What about the IC50 (second compound 0.1 µM) of the same molecule?
Answer: 0.0616 µM

Question: And the IC50 (second compound 0.316 µM)?
Answer: 0.0317 µM

Question: And the IC50 (second compound 1 µM)?
Answer: 0.0388 µM

Question: And the IC50 (second compound 3.16 µM)?
Answer: 0.0549 µM

Question: What about the IC50 (second compound 10 µM) of the same molecule?
Answer: 0.0455 µM

Question: What about the viability, T/C (second compound 0.0316 µM, first compound 0.00316 µM) of the same molecule?
Answer: 95.1%

Question: And the viability, T/C (second compound 0.0316 µM, first compound 0.01 µM)?
Answer: 122%

Question: And the viability, T/C [1]?
Answer: 54.7%

Question: And the viability, T/C [2]?
Answer: 34.4%

Question: What about the viability, T/C [3] of the same molecule?
Answer: 10.4%

Question: And the viability, T/C [4]?
Answer: 7.92%

Question: What about the viability, T/C (second compound 0.1 µM, first compound 0.00316 µM) of the same molecule?
Answer: 111%

Question: What about the viability, T/C (second compound 0.1 µM, first compound 0.01 µM) of the same molecule?
Answer: 99.2%

Question: And the viability, T/C [7]?
Answer: 72.4%

Question: What about the viability, T/C [8] of the same molecule?
Answer: 35.2%

Question: And the viability, T/C [9]?
Answer: 9.41%

Question: What about the viability, T/C [10] of the same molecule?
Answer: 8.83%

Question: What about the viability, T/C (second compound 0.316 µM, first compound 0.00316 µM) of the same molecule?
Answer: 102%

Question: And the viability, T/C (second compound 0.316 µM, first compound 0.01 µM)?
Answer: 92.4%

Question: And the viability, T/C [13]?
Answer: 44.1%

Question: And the viability, T/C [14]?
Answer: 28.3%

Question: And the viability, T/C [15]?
Answer: 8.42%

Question: What about the viability, T/C [16] of the same molecule?
Answer: 8.2%

Question: And the viability, T/C (second compound 1 µM, first compound 0.00316 µM)?
Answer: 117%

Question: What about the viability, T/C (second compound 1 µM, first compound 0.01 µM) of the same molecule?
Answer: 83.2%

Question: And the viability, T/C [19]?
Answer: 62.1%

Question: What about the viability, T/C [20] of the same molecule?
Answer: 23.2%

Question: And the viability, T/C [21]?
Answer: 10.4%

Question: What about the viability, T/C [22] of the same molecule?
Answer: 7.61%

Question: What about the viability, T/C (second compound 3.16 µM, first compound 0.00316 µM) of the same molecule?
Answer: 93.1%

Question: And the viability, T/C (second compound 3.16 µM, first compound 0.01 µM)?
Answer: 71%

Question: What about the viability, T/C [25] of the same molecule?
Answer: 76.5%

Question: What about the viability, T/C [26] of the same molecule?
Answer: 21.5%

Question: And the viability, T/C [27]?
Answer: 10.1%

Question: And the viability, T/C [28]?
Answer: 8.73%

Question: What about the viability, T/C (second compound 10 µM, first compound 0.00316 µM) of the same molecule?
Answer: 80.4%

Question: And the viability, T/C (second compound 10 µM, first compound 0.01 µM)?
Answer: 88.1%

Question: What about the viability, T/C [31] of the same molecule?
Answer: 66.1%

Question: What about the viability, T/C [32] of the same molecule?
Answer: 15.1%

Question: What about the viability, T/C [33] of the same molecule?
Answer: 11.3%

Question: And the viability, T/C [34]?
Answer: 12.5%

Question: Which results are given for `CCCS(=O)(=O)Nc1ccc(F)c(C(=O)c2c[nH]c3ncc(-c4ccc(Cl)cc4)cc23)c1F` + Nc1ccc(C#CCN(C(=O)Cc2ncc(C(F)(F)F)cc2C(F)(F)F)c2ccc(F)cc2)nn1?
Answer: IC50 (second compound 0.0316 µM): 9.23 µM; IC50 (second compound 0.1 µM): 9.61 µM; IC50 (second compound 0.316 µM): > 10 µM; IC50 (second compound 1 µM): > 10 µM; IC50 (second compound 3.16 µM): 9.37 µM; IC50 (second compound 10 µM): 9.98 µM; viability, T/C [1]: 114%; viability, T/C [2]: 112%; viability, T/C [3]: 117%; viability, T/C [4]: 135%; viability, T/C [5]: 113%; viability, T/C [6]: 45%; viability, T/C [7]: 126%; viability, T/C [8]: 138%; viability, T/C [9]: 109%; viability, T/C [10]: 140%; viability, T/C [11]: 131%; viability, T/C [12]: 47.3%; viability, T/C [13]: 118%; viability, T/C [14]: 121%; viability, T/C [15]: 90.9%; viability, T/C [16]: 165%; viability, T/C [17]: 120%; viability, T/C [18]: 50.3%; viability, T/C [19]: 103%; viability, T/C [20]: 97.4%; viability, T/C [21]: 95.1%; viability, T/C [22]: 112%; viability, T/C [23]: 129%; viability, T/C [24]: 63.2%; viability, T/C [25]: 110%; viability, T/C [26]: 121%; viability, T/C [27]: 140%; viability, T/C [28]: 158%; viability, T/C [29]: 121%; viability, T/C [30]: 45.6%; viability, T/C [31]: 104%; viability, T/C [32]: 125%; viability, T/C [33]: 145%; viability, T/C [34]: 174%; viability, T/C [35]: 151%; viability, T/C [36]: 50%
